US20250170104A1, “INHIBITORS OF PSEUDOMONAS AERUGINOSA VIRULENCE FACTOR Lasß” (priority 2022, published 2025)

These compounds were tested against LasB (Pseudomonas aeruginosa (strain ATCC 15692 / DSM 22644 / CIP 104116 / JCM 14847 / LMG 12228 / 1C / PRS 101 / PAO1), UniProt P14756) (assay: In vitro LasB activity assay (fluorogenic substrate)). Conditions: LasB 0.3 nM, substrate 150 μM, mean ± SD.
Type: biochemical
Procedure: The LasB activity assay was performed as described previously (Nishino N, Powers J C. Pseudomonas aeruginosa elastase. Development of a new substrate, inhibitors, and an affinity ligand. J Biol Chem. 1980 Apr. 25; 255(8):3482-6) using the fluorogenic substrate 2-Aminobenzoyl-L-Alanyl-Glycyl-L-Leucyl-L-Alanyl-para-Nitro-Benzyl-Amide, purchased from Peptides International (Louisville, KY, USA) and vivitide, LLC (Gardner, MA, USA).
Fluorescence intensity was measured for 60 min at 37° C. in black 384-well microtiter plates (Greiner BioOne, Kremsmünster, Austria) using a CLARIOstar microplate reader (BMG Labtech, Ortenberg, Germany) with an excitation wavelength of […] and an emission wavelength of 415±20 nm. The assay was performed in a final volume of 50 μL of assay buffer (50 mM Tris, pH 7.2, 2.5 mM CaCl2), 0.075% Pluronic F-127, 5% DMSO) containing LasB at a final concentration of […] 0.3 nM and the substrate at 150 μM. Before substrate addition, compounds were preincubated with the enzyme at 37° C. for 15 min. Experiments were performed in duplicates and repeated for at least two times. Blank controls without enzyme were performed. After blank subtraction, the slope of samples containing inhibitors (v) was divided by the slope of a simultaneously started uninhibited enzymatic reaction (v0). IC50 values were determined with nonlinear regression using GraphPad Prism 5 (Graph Pad Software, San Diego, CA, USA) and are given as mean values ±standard deviation (SD). The slope factor was constrained to 1.

LasB, sequence (P14756 198-498): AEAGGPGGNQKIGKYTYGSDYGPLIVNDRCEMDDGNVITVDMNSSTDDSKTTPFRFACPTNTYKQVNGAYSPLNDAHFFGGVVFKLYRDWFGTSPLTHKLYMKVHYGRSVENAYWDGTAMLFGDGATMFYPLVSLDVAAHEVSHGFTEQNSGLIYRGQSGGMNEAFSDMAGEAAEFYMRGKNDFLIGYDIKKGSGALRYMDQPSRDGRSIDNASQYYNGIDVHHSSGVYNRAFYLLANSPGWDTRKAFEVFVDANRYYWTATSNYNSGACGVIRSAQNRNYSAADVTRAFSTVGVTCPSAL

| Structure (SMILES) | IC50 [nM] |
| --- | --- |
| CC(C)CC(C(=O)NO)C(=O)Nc1ccc(Cn2cc(CN)nn2)cc1 (stereo not shown) [Compound 140, N-[4-[[4-(Aminomethyl)triazol-1-yl]methyl]phenyl]-2-(hydroxycarbamoyl)-4-methyl-pentanamide] | 55.9 ± 2.3 |
| CC(C)CC(C(=O)NO)C(=O)Nc1ccc(Cn2cc(Cc3ccc(Cl)cc3)nn2)cc1 (stereo not shown) [Compound 137, N-[4-[[4-[(4-Chlorophenyl)methyl]triazol-1-yl]methyl]phenyl]-2-(hydroxycarbamoyl)-4-methyl-pentanamide] | 16.9 ± 1.3 |
| CC(C)CC(C(=O)NO)C(=O)Nc1ccc(Cn2cc(CNS(=O)(=O)c3ccc(N)cc3)nn2)cc1 (stereo not shown) [Compound 210, N-[4-[[4-[[(4-aminophenyl)sulfonylamino]methyl]triazol-1-yl]methyl]phenyl]-2-(hydroxycarbamoyl)-4-methyl-pentanamide] | 7.7 ± 0.2 |
| CC(C)CC(C(=O)NO)C(=O)Nc1ccc(Cn2cc(CNS(=O)(=O)c3ccccc3Cl)nn2)cc1 (stereo not shown) [Compound 163, N-[4-[[4-[[(2-Chlorophenyl)sulfonylamino]methyl]triazol-1-yl]methyl]phenyl]-2-(hydroxycarbamoyl)-4-methyl-pentanamide] | 4.3 ± 0.1 |
| CC(C)CC(C(=O)NO)C(=O)Nc1ccc(Cn2cc(CNS(=O)(=O)c3ccccc3)nn2)cc1 (stereo not shown) [Compound 167, N-[4-[[4-(Benzenesulfonamidomethyl)triazol-1-yl]methyl]phenyl]-2-(hydroxycarbamoyl)-4-methyl-pentanamide] | 5.5 ± 0.3 |
| CC(C)CC(C(=O)NO)C(=O)Nc1ccc(Cn2cc(CNC(=O)c3ccc(I)cc3)nn2)cc1 (stereo not shown) [Compound 132, N-[[1-[[4-[[2-(Hydroxycarbamoyl)-4-methyl-pentanoyl]amino]phenyl]methyl]triazol-4-yl]methyl]-4-iodo-benzamide] | 22.8 ± 0.1 |
| COCCOc1ccc(S(=O)(=O)NCc2cn(Cc3ccc(NC(=O)C(CC(C)C)C(=O)NO)cc3)nn2)cc1 (stereo not shown) [Compound 205, 2-(hydroxycarbamoyl)-N-[4-[[4-[[[4-(2-methoxyethoxy)phenyl]sulfonylamino]methyl]triazol-1-yl]methyl]phenyl]-4-methyl-pentanamide] | 29.5 ± 0.7 |
| COC(=O)c1ccc(S(=O)(=O)NCc2cn(Cc3ccc(NC(=O)C(CC(C)C)C(=O)NO)cc3)nn2)cc1 (stereo not shown) [Compound 204, methyl 4-[[1-[[4-[[2-(hydroxycarbamoyl)-4-methyl-pentanoyl]amino]phenyl]methyl]triazol-4-yl]methylsulfamoyl]benzoate] | 13 ± 0.4 |
| CC(C)CC(C(=O)NO)C(=O)Nc1ccc(Cn2nncc2CNS(=O)(=O)c2ccc(F)cc2)cc1 (stereo not shown) [Compound 191, N-[4-[[5-[[(4-Fluorophenyl)sulfonylamino]methyl]triazol-1-yl]methyl]phenyl]-2-(hydroxycarbamoyl)-4-methyl-pentanamide] | 7.9 ± 0.1 |
| CC(C)CC(C(=O)NO)C(=O)Nc1ccc(Cn2cc(CNC(=O)OC(C)(C)C)nn2)cc1 (stereo not shown) [Compound 133, Tert-butyl N-[[1-[[4-[[2-(hydroxycarbamoyl)-4-methyl-pentanoyl]amino]phenyl]methyl]triazol-4-yl]methyl]carbamate] | 9.8 ± 0.4 |
| CC(C)CC(C(=O)NO)C(=O)Nc1ccc(Cn2cc(CNS(=O)(=O)c3ccc(OC(C)C)cc3)nn2)cc1 (stereo not shown) [Compound 206, 2-(hydroxycarbamoyl)-N-[4-[[4-[[(4-isopropoxyphenyl)sulfonylamino]methyl]triazol-1-yl]methyl]phenyl]-4-methyl-pentanamide] | 7.8 ± 0.3 |
| CC(C)CC(C(=O)NO)C(=O)Nc1ccc(Cn2cc(CNS(=O)(=O)c3ccc(-c4ccccc4)cc3)nn2)cc1 (stereo not shown) [Hit L3, 2-(Hydroxycarbamoyl)-4-methyl-N-[4-[[4-[[(4-phenylphenyl)sulfonylamino]methyl]triazol-1-yl]methyl]phenyl]pentanamide] | 13.9 ± 0.3 |
| CC(C)CC(C(=O)NO)C(=O)Nc1ccc(Cn2cc(COc3ccc(Cl)cc3)nn2)cc1 (stereo not shown) [Compound 135, N-[4-[[4-[(4-Chlorophenoxy)methyl]triazol-1-yl]methyl]phenyl]-2-(hydroxycarbamoyl)-4-methyl-pentanamide] | 9.8 ± 0.3 |
